Data taken from US20190330224A1, “ACC INHIBITORS AND USES THEREOF” (Gilead Apollo, LLC, priority 2015, published 2019).
In brackets after ≈: the same amount, converted by molar mass.

Columns and labels:
Human ACC2 = Human ACC2 (Homo sapiens, UniProt O00763); assay: In vitro ACC2 inhibition assay (ADP-Glo), human ACC2; format: biochemical; conditions: 5 nM ACC2, 20 μM ATP, 20 μM acetyl-CoA
C. albicans ATCC 90028 = assay: Anti-Fungal Activity Assay (broth microtiter MIC), C. albicans; format: cell-based, Candida albicans; conditions: Candida albicans, ATCC90028, 48 h, 3 replicates; MIC recorded at 48 h; read-out: MIC C. albicans ATCC 90028
Procedure, shortened: (§1)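 MIC by visual comparison with growth control, read at 48 h (soraphen also at 24 h). Inoculum: colonies from overnight Sabouraud dextrose agar plates at 35° C, suspended in RPMI 1640+MOPS, density from standard curves. Microtiter broth dilution per CLSI M27-A3; compounds from 1 mg/mL DMSO stocks.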

C. krusei ATCC 6258 = assay: Anti-Fungal Activity Assay (broth microtiter MIC), C. krusei; format: cell-based, Candida krusei; conditions: Pichia kudriavzevii, ATCC6258, 48 h, 3 replicates; MIC recorded at 48 h; read-out: MIC C. krusei ATCC 6258
Procedure, shortened: as §1

[1] = test system: C. parapsilosis ATCC 22019; assay: Anti-Fungal Activity Assay (broth microtiter MIC), C. parapsilosis; format: cell-based, Candida parapsilosis; conditions: Lodderomyces parapsilosis, ATCC22019, 48 h, 3 replicates; MIC recorded at 48 h; read-out: MIC C. parapsilosis ATCC 22019
Procedure, shortened: as §1

Fungal ACC2 = Fungal ACC2 (UniProt Q00955); conditions: read-out: Fungal ACC2 (IC50, in vitro ACC2 inhibition)
Sequence of Fungal ACC2 (Q00955 whole entry): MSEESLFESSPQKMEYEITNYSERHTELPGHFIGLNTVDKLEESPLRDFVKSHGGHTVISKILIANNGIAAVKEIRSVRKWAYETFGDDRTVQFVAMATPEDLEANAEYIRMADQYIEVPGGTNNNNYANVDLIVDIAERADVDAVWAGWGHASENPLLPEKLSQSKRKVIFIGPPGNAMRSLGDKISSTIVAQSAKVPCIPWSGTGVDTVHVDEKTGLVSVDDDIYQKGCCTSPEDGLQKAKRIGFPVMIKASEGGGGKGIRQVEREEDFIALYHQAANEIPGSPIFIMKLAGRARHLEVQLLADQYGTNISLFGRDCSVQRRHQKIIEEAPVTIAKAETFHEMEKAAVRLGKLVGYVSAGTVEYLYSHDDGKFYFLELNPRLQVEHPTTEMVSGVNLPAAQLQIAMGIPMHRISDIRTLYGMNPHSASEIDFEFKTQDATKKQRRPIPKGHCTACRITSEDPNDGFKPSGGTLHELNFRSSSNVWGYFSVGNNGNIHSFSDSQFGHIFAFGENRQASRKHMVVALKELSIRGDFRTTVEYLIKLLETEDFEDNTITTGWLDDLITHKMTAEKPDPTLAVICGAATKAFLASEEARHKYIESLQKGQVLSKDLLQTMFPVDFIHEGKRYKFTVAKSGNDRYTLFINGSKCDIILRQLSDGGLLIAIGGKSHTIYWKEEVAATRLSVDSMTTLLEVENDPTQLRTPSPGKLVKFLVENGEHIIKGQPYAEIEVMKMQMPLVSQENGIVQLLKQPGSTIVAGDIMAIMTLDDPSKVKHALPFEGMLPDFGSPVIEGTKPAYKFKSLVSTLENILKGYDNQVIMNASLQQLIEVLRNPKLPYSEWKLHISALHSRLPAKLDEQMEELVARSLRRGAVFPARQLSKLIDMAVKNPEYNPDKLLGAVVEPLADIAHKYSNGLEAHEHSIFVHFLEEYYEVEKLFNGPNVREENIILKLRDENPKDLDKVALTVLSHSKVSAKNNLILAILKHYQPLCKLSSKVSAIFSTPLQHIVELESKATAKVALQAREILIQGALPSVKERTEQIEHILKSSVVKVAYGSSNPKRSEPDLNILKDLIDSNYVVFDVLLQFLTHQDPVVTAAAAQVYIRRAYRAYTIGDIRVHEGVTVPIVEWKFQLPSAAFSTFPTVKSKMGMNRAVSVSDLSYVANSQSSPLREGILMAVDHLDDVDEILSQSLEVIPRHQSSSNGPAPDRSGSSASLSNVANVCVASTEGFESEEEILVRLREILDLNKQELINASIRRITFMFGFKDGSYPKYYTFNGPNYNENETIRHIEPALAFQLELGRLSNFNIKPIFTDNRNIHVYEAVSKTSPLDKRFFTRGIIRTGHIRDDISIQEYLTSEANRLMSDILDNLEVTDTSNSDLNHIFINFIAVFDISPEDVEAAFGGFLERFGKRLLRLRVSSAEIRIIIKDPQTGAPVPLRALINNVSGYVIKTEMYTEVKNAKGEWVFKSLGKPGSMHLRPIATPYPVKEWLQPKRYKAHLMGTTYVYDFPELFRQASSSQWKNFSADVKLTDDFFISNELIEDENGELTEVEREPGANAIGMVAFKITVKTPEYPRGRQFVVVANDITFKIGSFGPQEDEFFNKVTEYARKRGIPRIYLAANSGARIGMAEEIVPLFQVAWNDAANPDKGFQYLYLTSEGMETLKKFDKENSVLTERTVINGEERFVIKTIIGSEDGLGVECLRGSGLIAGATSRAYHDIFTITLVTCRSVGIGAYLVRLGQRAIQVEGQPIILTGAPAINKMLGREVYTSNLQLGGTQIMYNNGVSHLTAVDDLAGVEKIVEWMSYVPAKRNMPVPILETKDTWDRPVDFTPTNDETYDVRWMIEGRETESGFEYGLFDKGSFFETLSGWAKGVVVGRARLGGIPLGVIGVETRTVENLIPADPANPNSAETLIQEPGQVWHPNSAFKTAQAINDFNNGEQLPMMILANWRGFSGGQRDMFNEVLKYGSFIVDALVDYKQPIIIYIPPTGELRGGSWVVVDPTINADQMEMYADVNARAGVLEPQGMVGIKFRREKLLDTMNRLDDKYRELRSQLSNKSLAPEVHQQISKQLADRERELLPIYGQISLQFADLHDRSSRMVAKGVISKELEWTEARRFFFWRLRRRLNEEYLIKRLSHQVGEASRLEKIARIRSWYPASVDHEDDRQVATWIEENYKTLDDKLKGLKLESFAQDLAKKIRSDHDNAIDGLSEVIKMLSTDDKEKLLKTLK

Sequence of Human ACC2 (O00763 whole entry): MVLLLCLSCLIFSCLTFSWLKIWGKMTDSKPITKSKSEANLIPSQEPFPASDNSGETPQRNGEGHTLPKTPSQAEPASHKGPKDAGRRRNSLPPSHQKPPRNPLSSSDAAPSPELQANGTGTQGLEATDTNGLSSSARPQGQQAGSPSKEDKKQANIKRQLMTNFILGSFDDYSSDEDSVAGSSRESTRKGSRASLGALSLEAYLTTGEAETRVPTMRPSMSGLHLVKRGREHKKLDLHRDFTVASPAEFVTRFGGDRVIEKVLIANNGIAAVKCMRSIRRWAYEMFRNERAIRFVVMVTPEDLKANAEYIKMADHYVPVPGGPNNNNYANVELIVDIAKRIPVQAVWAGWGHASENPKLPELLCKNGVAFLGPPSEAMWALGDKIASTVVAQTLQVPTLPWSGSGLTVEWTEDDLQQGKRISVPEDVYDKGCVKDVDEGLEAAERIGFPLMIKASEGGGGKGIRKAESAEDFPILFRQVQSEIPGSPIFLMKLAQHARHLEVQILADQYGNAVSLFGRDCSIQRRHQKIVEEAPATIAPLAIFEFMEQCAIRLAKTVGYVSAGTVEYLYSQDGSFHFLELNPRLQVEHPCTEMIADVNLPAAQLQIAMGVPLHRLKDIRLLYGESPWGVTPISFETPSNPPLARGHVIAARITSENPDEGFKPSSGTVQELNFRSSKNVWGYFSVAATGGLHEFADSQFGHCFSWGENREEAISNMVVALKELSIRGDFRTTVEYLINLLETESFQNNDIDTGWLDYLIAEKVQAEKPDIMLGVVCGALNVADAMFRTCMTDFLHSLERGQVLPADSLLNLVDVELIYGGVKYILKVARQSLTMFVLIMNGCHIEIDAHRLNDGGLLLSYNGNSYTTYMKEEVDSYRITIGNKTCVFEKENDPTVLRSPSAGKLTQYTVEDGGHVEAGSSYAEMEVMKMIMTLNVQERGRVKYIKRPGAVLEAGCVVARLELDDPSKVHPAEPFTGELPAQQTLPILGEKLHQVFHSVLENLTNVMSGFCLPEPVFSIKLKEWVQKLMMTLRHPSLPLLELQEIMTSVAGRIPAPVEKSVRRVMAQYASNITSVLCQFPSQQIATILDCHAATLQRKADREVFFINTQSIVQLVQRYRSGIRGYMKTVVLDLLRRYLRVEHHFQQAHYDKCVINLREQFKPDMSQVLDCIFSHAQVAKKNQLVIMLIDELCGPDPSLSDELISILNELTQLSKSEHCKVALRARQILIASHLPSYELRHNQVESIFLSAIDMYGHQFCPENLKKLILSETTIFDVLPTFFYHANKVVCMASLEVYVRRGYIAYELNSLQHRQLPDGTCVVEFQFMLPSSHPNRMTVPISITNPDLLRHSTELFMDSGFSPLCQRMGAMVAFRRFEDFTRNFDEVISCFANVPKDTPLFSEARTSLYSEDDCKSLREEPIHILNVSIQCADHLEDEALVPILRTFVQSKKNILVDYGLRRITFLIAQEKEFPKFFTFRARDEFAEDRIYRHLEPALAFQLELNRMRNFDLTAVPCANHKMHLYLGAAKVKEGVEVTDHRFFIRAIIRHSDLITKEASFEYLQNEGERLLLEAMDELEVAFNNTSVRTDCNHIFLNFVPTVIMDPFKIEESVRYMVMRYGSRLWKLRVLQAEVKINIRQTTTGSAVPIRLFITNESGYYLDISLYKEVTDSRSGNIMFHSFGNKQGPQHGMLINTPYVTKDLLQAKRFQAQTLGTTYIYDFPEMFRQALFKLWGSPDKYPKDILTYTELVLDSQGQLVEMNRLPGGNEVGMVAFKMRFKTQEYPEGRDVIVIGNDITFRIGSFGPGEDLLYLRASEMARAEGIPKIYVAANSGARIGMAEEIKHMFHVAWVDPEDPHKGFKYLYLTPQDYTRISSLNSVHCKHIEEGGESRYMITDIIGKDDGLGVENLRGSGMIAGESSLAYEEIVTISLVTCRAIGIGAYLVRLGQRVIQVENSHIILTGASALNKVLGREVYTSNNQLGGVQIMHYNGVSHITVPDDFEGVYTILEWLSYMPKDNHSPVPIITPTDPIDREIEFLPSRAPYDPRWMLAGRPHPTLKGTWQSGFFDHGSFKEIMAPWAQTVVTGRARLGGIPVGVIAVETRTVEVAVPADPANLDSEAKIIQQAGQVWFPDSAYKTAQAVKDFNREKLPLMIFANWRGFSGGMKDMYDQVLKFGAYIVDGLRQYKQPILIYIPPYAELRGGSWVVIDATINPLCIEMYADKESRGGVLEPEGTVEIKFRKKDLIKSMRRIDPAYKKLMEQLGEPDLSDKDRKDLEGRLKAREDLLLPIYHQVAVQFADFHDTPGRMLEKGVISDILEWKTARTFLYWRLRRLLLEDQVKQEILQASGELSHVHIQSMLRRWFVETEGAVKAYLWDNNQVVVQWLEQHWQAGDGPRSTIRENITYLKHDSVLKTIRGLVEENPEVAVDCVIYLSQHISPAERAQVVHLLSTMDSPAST

SMILES	IC50 (Human ACC2) [nM]	MIC (C. albicans ATCC 90028) [µg/mL]	MIC (C. krusei ATCC 6258) [µg/mL]	MIC [1] [µg/mL]	IC50 (Fungal ACC2) [nM]
COc1ccc(F)cc1[C@H](Cn1c(=O)n([C@H]2CCN(C)C2=O)c(=O)c2c(C)c(-n3nccn3)sc21)O[C@H]1CC[C@@H](O)CC1 [Compound I-152, 1-((R)-2-(5-fluoro-2-methoxyphenyl)-2-(((1 s, 4S)-4-hydroxycyclohexyl)oxy)ethyl)-5-methyl-3-((S)-1-methyl-2-oxopyrrolidin-3-yl)-6-(2H-1,2,3-triazol-2-yl)thieno[2,3-d]pyrimidine-2,4(1H,3H)-dione]	2 to 10	0.25 to 1 (≈ 0.408 to 1.63 µM)	0.25 to 1 (≈ 0.408 to 1.63 µM)	0.25 to 1 (≈ 0.408 to 1.63 µM)	2 to 10
COc1ccc(F)cc1[C@H](Cn1c(=O)n([C@@H]2CCN(C)C2=O)c(=O)c2c(C)c(-n3nccn3)sc21)O[C@H]1CC[C@@H](O)CC1 [Compound I-153, 1-((R)-2-(5-fluoro-2-methoxyphenyl)-2-(((1 s, 4S)-4-hydroxycyclohexyl)oxy)ethyl)-5-methyl-3-((R)-1-methyl-2-oxopyrrolidin-3-yl)-6-(2H-1,2,3-triazol-2-yl)thieno[2,3-d]pyrimidine-2,4(1H,3H)-dione]	2 to 10	0.075 to 0.24 (≈ 0.122 to 0.392 µM)	0.25 to 1 (≈ 0.408 to 1.63 µM)	0.25 to 1 (≈ 0.408 to 1.63 µM)	0.7 to 2
COc1ccc(F)cc1[C@H](Cn1c(=O)n([C@H]2CCN(C)C2=O)c(=O)c2c(C)c(-n3nccn3)sc21)OCCCO [Compound I-154, 1-((R)-2-(5-fluoro-2-methoxyphenyl)-2-(3-hydroxy-propoxy)ethyl)-5-methyl-3-((S)-1-methyl-2-oxopyrrolidin-3-yl)-6-(2H-1,2,3-triazol-2-yl)thieno[2,3-d]pyrimidine-2,4(1H,3H)-dione]	2 to 10	2.1 to 4 (≈ 3.67 to 6.99 µM)	0.25 to 1 (≈ 0.437 to 1.75 µM)	2.1 to 4 (≈ 3.67 to 6.99 µM)	0.7 to 2
COc1ccc(F)cc1[C@H](Cn1c(=O)n([C@@H]2CCN(C)C2=O)c(=O)c2c(C)c(-n3nccn3)sc21)OCCCO [Compound I-155, 1-((R)-2-(5-fluoro-2-methoxyphenyl)-2-(3-hydroxypropoxy)ethyl)-5-methyl-3-((R)-1-methyl-2-oxopyrrolidin-3-yl)-6-(2H-1,2,3-triazol-2-yl)thieno[2,3-d]pyrimidine-2,4(1H,3H)-dione]	2 to 10	2.1 to 4 (≈ 3.67 to 6.99 µM)	2.1 to 4 (≈ 3.67 to 6.99 µM)	2.1 to 4 (≈ 3.67 to 6.99 µM)	0.7 to 2
COc1ccc(F)cc1[C@H](COc1nc2sc(-n3nccn3)c(C)c2c(=O)n1[C@H]1CCN(C)C1=O)OCCCO [Compound I-156, 2-((R)-2-(5-fluoro-2-methoxyphenyl)-2-(3-hydroxy-propoxy)ethoxy)-5-methyl-3-((S)-1-methyl-2-oxopyrrolidin-3-yl)-6-(2H-1,2,3-triazol-2-yl)thieno[2,3-d]pyrimidin-4(3H)-one]	> 1000	2.1 to 4 (≈ 3.67 to 6.99 µM)	2.1 to 4 (≈ 3.67 to 6.99 µM)	2.1 to 4 (≈ 3.67 to 6.99 µM)	100 to 1000
COCCO[C@@H](Cn1c(=O)n([C@H]2CCN(C)C2=O)c(=O)c2c(C)c(-n3nccn3)sc21)c1cc(F)ccc1O [Compound I-157, 1-((R)-2-(5-fluoro-2-hydroxyphenyl)-2-(2-methoxyethoxy)ethyl)-5-methyl-3-((S)-1-methyl-2-oxopyrrolidin-3-yl)-6-(2H-1,2,3-triazol-2-yl)thieno[2,3-d]pyrimidine-2,4(1H,3H)-dione]	100 to 1000	2.1 to 4 (≈ 3.76 to 7.16 µM)	2.1 to 4 (≈ 3.76 to 7.16 µM)	2.1 to 4 (≈ 3.76 to 7.16 µM)	2 to 10
COCCO[C@@H](Cn1c(=O)n([C@@H]2CCN(C)C2=O)c(=O)c2c(C)c(-n3nccn3)sc21)c1cc(F)ccc1O [Compound I-158, 1-((R)-2-(5-fluoro-2-hydroxyphenyl)-2-(2-methoxyethoxy)ethyl)-5-methyl-3-((R)-1-methyl-2-oxopyrrolidin-3-yl)-6-(2H-1,2,3-triazol-2-yl)thieno[2,3-d]pyrimidine-2,4(1H,3H)-dione]	100 to 1000	2.1 to 4 (≈ 3.76 to 7.16 µM)	2.1 to 4 (≈ 3.76 to 7.16 µM)	2.1 to 4 (≈ 3.76 to 7.16 µM)	2 to 10
COc1ccc(F)cc1C(=O)Cn1c(=O)n([C@H]2CCN(C)C2=O)c(=O)c2c(C)c(-n3nccn3)sc21 [Compound I-161, (S)-1-(2-(5-fluoro-2-methoxyphenyl)-2-oxoethyl)-5-methyl-3-(1-methyl-2-oxopyrrolidin-3-yl)-6-(2H-1,2,3-triazol-2-yl)thieno[2,3-d]pyrimidine-2,4(1H,3H)-dione]	> 1000	2.1 to 4 (≈ 4.1 to 7.8 µM)	2.1 to 4 (≈ 4.1 to 7.8 µM)	2.1 to 4 (≈ 4.1 to 7.8 µM)	100 to 1000
COc1ccccc1C(=O)Cn1c(=O)n([C@H]2CCN(C)C2=O)c(=O)c2c(C)c(-n3nccn3)sc21 [Compound I-163, (S)-1-(2-(2-methoxyphenyl)-2-oxoethyl)-5-methyl-3-(1-methyl-2-oxopyrrolidin-3-yl)-6-(2H-1,2,3-triazol-2-yl)thieno[2,3-d]pyrimidine-2,4(1H,3H)-dione]	> 1000	2.1 to 4 (≈ 4.25 to 8.09 µM)	2.1 to 4 (≈ 4.25 to 8.09 µM)	2.1 to 4 (≈ 4.25 to 8.09 µM)	100 to 1000
COc1ccccc1[C@@H](O)Cn1c(=O)n([C@H]2CCN(C)C2=O)c(=O)c2c(C)c(-n3nccn3)sc21 [Compound I-165, 1-((R)-2-hydroxy-2-(2-methoxyphenyl)ethyl)-5-methyl-3-((S)-1-methyl-2-oxopyrrolidin-3-yl)-6-(2H-1,2,3-triazol-2-yl)thieno[2,3-d]pyrimidine-2,4(1H,3H)-dione]	10 to 100	2.1 to 4 (≈ 4.23 to 8.06 µM)	2.1 to 4 (≈ 4.23 to 8.06 µM)	2.1 to 4 (≈ 4.23 to 8.06 µM)	2 to 10
COc1ccccc1C(=O)Cn1c(=O)n([C@@H]2CCN(C)C2=O)c(=O)c2c(C)c(-n3nccn3)sc21 [Compound I-167, (R)-1-(2-(2-methoxyphenyl)-2-oxoethyl)-5-methyl-3-(1-methyl-2-oxopyrrolidin-3-yl)-6-(2H-1,2,3-triazol-2-yl)thieno[2,3-d]pyrimidine-2,4(1H,3H)-dione]	100 to 1000	2.1 to 4 (≈ 4.25 to 8.09 µM)	2.1 to 4 (≈ 4.25 to 8.09 µM)	2.1 to 4 (≈ 4.25 to 8.09 µM)	10 to 100
COc1ccc(F)cc1[C@H](Cn1c(=O)n([C@H]2CCN(C)C2=O)c(=O)c2c(C)c(-n3nccn3)sc21)OC [Compound I-168, 1-((R)-2-(5-fluoro-2-methoxyphenyl)-2-methoxyethyl)-5-methyl-3-((S)-1-methyl-2-oxopyrrolidin-3-yl)-6-(2H-1,2,3-triazol-2-yl)thieno[2,3-d]pyrimidine-2,4(1H,3H)-dione]	10 to 100	2.1 to 4 (≈ 3.97 to 7.57 µM)	2.1 to 4 (≈ 3.97 to 7.57 µM)	2.1 to 4 (≈ 3.97 to 7.57 µM)	2 to 10
COc1ccccc1[C@@H](O)Cn1c(=O)n([C@@H]2CCN(C)C2=O)c(=O)c2c(C)c(-n3nccn3)sc21 [Compound I-169, 1-((R)-2-hydroxy-2-(2-methoxyphenyl)ethyl)-5-methyl-3-((R)-1-methyl-2-oxopyrrolidin-3-yl)-6-(2H-1,2,3-triazol-2-yl)thieno[2,3-d]pyrimidine-2,4(1H,3H)-dione]	10 to 100	2.1 to 4 (≈ 4.23 to 8.06 µM)	2.1 to 4 (≈ 4.23 to 8.06 µM)	2.1 to 4 (≈ 4.23 to 8.06 µM)	0.7 to 2
COc1ccc(F)cc1[C@H](Cn1c(=O)n([C@@H]2CCN(C)C2=O)c(=O)c2c(C)c(-n3nccn3)sc21)OC [Compound I-170, 1-((R)-2-(5-fluoro-2-methoxyphenyl)-2-methoxyethyl)-5-methyl-3-((R)-1-methyl-2-oxopyrrolidin-3-yl)-6-(2H-1,2,3-triazol-2-yl)thieno[2,3-d]pyrimidine-2,4(1H,3H)-dione]	10 to 100	2.1 to 4 (≈ 3.97 to 7.57 µM)	2.1 to 4 (≈ 3.97 to 7.57 µM)	2.1 to 4 (≈ 3.97 to 7.57 µM)	0.7 to 2
COc1ccccc1[C@H](Cn1c(=O)n([C@H]2CCN(C)C2=O)c(=O)c2c(C)c(-n3nccn3)sc21)OC [Compound I-171, 1-((R)-2-methoxy-2-(2-methoxyphenyl)ethyl)-5-methyl-3-((S)-1-methyl-2-oxopyrrolidin-3-yl)-6-(2H-1,2,3-triazol-2-yl)thieno[2,3-d]pyrimidine-2,4(1H,3H)-dione]	10 to 100	2.1 to 4 (≈ 4.11 to 7.83 µM)	2.1 to 4 (≈ 4.11 to 7.83 µM)	2.1 to 4 (≈ 4.11 to 7.83 µM)	2 to 10
COc1ccccc1[C@H](Cn1c(=O)n([C@@H]2CCN(C)C2=O)c(=O)c2c(C)c(-n3nccn3)sc21)OC [Compound I-172, 1-((R)-2-methoxy-2-(2-methoxyphenyl)ethyl)-5-methyl-3-((R)-1-methyl-2-oxopyrrolidin-3-yl)-6-(2H-1,2,3-triazol-2-yl)thieno[2,3-d]pyrimidine-2,4(1H,3H)-dione]	10 to 100	2.1 to 4 (≈ 4.11 to 7.83 µM)	2.1 to 4 (≈ 4.11 to 7.83 µM)	2.1 to 4 (≈ 4.11 to 7.83 µM)	0.7 to 2
COc1ccc(F)cc1[C@H](Cn1c(=O)n([C@H]2CCCNC2=O)c(=O)c2c(C)c(-n3nccn3)sc21)O[C@H]1CC[C@@H](O)CC1 [Compound I-173, 1-((R)-2-(S-fluoro-2-methoxyphenyl)-2-(((1s, 4S)-4-hydroxycyclohexyl)oxy)ethyl)-5-methyl-3-((S)-2-oxopiperidin-3-yl)-6-(2H-1,2,3-triazol-2-yl)thieno[2,3-d]pyrimidine-2,4(1H, 3H)-dione]	2 to 10	2.1 to 4 (≈ 3.43 to 6.53 µM)	2.1 to 4 (≈ 3.43 to 6.53 µM)	2.1 to 4 (≈ 3.43 to 6.53 µM)	0.7 to 2
